Experimental data reported in patent US20250270200A1, “CTPS1 INHIBITORS AND USES THEREOF” (Nimbus Clotho, Inc., priority 2022, published 2025).
Where a name gives a salt, the structure may show the parent alone.

Target: T1, human CTPS1 (Homo sapiens, UniProt P17812)
T1 sequence (P17812 1-591): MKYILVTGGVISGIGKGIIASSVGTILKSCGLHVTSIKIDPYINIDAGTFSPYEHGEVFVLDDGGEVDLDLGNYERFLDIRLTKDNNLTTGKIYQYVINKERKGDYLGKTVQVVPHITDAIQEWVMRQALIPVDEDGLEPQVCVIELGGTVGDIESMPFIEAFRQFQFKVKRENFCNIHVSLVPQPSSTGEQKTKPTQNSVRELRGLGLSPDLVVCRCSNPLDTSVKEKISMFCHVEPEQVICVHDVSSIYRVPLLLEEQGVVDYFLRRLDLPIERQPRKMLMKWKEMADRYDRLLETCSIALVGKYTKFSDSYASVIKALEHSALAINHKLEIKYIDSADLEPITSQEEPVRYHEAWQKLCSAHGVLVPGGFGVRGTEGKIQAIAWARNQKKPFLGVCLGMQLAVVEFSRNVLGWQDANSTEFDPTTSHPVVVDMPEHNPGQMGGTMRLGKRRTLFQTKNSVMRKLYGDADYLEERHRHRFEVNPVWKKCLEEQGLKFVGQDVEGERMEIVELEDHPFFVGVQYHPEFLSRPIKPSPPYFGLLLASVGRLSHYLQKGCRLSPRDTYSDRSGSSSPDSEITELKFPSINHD
Assay: ADP-Glo assay, human CTPS1 enzyme inhibition
Type: biochemical
Details: wild-type human CTPS1, 25 nM enzyme; ADP-Glo; read-out: ADP-Glo_WT_hCTPS1—25 nM_IC50 (IC50)
Method in brief: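 Full-length tagged human CTPS1 (25 nM) pre-incubated 10 min at 25° C with compound, then 10 min with ATP (120 μM) and UTP (160 μM); reaction started with L-glutamine (100 μM) and GTP (60 μM), 1% DMSO, in HEPES pH 7.4, 10 mM Mg2+, 5 mM KCl, 2 mM DTT. Run within linear phase at 25° C; ADP measured by ADP-Glo luminescence.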

| IC50 [nM] | SMILES |
| --- | --- |
| 25 to 50 | CCOc1cncc(-c2cnc(C(=O)N[C@@H](C[C@@H]3COCCN3C)c3cccc(NS(=O)(=O)C(F)F)c3)s2)n1 [I-191, N-((S)-1-(3-((difluoromethyl)sulfonamido)phenyl)-2-((R)-4-methylmorpholin-3-yl)ethyl)-5-(6-ethoxypyrazin-2-yl)thiazole-2-carboxamide] |
| 5 to 25 | CCOc1cncc(-c2cnc(C(=O)N[C@@H](C[C@H]3COCCN3C)c3cccc(NS(=O)(=O)C(F)F)c3)s2)n1 [I-192, N-((S)-1-(3-((difluoromethyl)sulfonamido)phenyl)-2-((S)-4-methylmorpholin-3-yl)ethyl)-5-(6-ethoxypyrazin-2-yl)thiazole-2-carboxamide] |
| 50 to 100 | CCOc1cncc(-c2cnc(C(=O)N[C@H](CC3COCCN3C)c3cccc(NS(=O)(=O)C(F)F)c3)s2)n1 (stereo partly drawn) [I-193, N-((1R)-1-(3-((difluoromethyl)sulfonamido)phenyl)-2-(4-methylmorpholin-3-yl)ethyl)-5-(6-ethoxypyrazin-2-yl)thiazole-2-carboxamide] |
| 5 to 25 | CCOc1cncc(-c2cnc(C(=O)N[C@H](c3cccc(NS(=O)(=O)C(F)F)c3)C3CCOCC3)s2)n1 [I-194, (S)-N-((3-((difluoromethyl)sulfonamido)phenyl)(tetrahydro-2H-pyran-4-yl)methyl)-5-(6-ethoxypyrazin-2-yl)thiazole-2-] |
| 5 to 25 | CCOc1cncc(-c2cnc(C(=O)N[C@@H](c3cccc(NS(=O)(=O)C(F)F)c3)C3CCOCC3)s2)n1 [I-195, (R)-N-((3-((difluoromethyl)sulfonamido)phenyl)(tetrahydro-2H-pyran-4-yl)methyl)-5-(6-ethoxypyrazin-2-yl)thiazole-2-carboxamide] |
| 5 to 25 | O=C(N[C@H](c1cccc(NS(=O)(=O)C(F)F)c1)C1CCOCC1)c1ncc(-c2cnn3ccc(Cl)cc23)s1 [I-196, (S)-5-(5-chloropyrazolo[1,5-a]pyridin-3-yl)-N-((3-((difluoromethyl)sulfonamido)phenyl)(tetrahydro-2H-pyran-4-yl)methyl)thiazole-2-carboxamide] |
| 5 to 25 | O=C(N[C@@H](c1cccc(NS(=O)(=O)C(F)F)c1)C1CCOCC1)c1ncc(-c2cnn3ccc(Cl)cc23)s1 [I-197, (R)-5-(5-chloropyrazolo[1,5-a]pyridin-3-yl)-N-((3-((difluoromethyl)sulfonamido)phenyl)(tetrahydro-2H-pyran-4-yl)methyl)thiazole-2-carboxamide] |
| 5 to 25 | CCOc1cncc(-c2cnc(C(=O)N[C@H](c3cccc(NS(=O)(=O)C(F)F)c3)[C@H]3COCCO3)s2)n1 [I-198, N-((R)-(3-((difluoromethyl)sulfonamido)phenyl)((S)-1,4-dioxan-2-yl)methyl)-5-(6-ethoxypyrazin-2-yl)thiazole-2-carboxamide] |
| 5 to 25 | CCOc1cncc(-c2cnc(C(=O)N[C@H](c3cccc(NS(=O)(=O)C(F)F)c3)[C@@H]3COCCO3)s2)n1 [I-199, N-((R)-(3-((difluoromethyl)sulfonamido)phenyl)((R)-1,4-dioxan-2-yl)methyl)-5-(6-ethoxypyrazin-2-yl)thiazole-2-carboxamide] |
| 5 to 25 | CCOc1cncc(-c2cnc(C(=O)N[C@@H](c3cccc(NS(=O)(=O)C(F)F)c3)[C@@H]3COCCO3)s2)n1 [I-200, N-((S)-(3-((difluoromethyl)sulfonamido)phenyl)((R)-1,4-dioxan-2-yl)methyl)-5-(6-ethoxypyrazin-2-yl)thiazole-2-carboxamide] |
| 5 to 25 | CCOc1cncc(-c2cnc(C(=O)N[C@@H](c3cccc(NS(=O)(=O)C(F)F)c3)[C@H]3COCCO3)s2)n1 [I-201, N-((S)-(3-((difluoromethyl)sulfonamido)phenyl)((S)-1,4-dioxan-2-yl)methyl)-5-(6-ethoxypyrazin-2-yl)thiazole-2-carboxamide] |
| 5 to 25 | CCOc1cncc(-c2cnc(C(=O)N[C@]3(c4cccc(NS(=O)(=O)C(F)F)c4)C[C@H](O)C3)s2)n1 [I-202, N-((1s,3s)-1-(3-((difluoromethyl)sulfonamido)phenyl)-3-hydroxycyclobutyl)-5-(6-ethoxypyrazin-2-yl)thiazole-2-carboxamide] |
| 5 to 25 | CCOc1cncc(-c2cnc(C(=O)N[C@]3(c4cccc(NS(=O)(=O)C(F)F)c4)C[C@@H](O)C3)s2)n1 [I-203, N-((1r,3r)-1-(3-((difluoromethyl)sulfonamido)phenyl)-3-hydroxycyclobutyl)-5-(6-ethoxypyrazin-2-yl)thiazole-2-carboxamide] |
| 5 to 25 | CCOc1cncc(-c2cnc(C(=O)N[C@@H](CN3C[C@H]4C[C@@H]3CO4)c3cccc(NS(=O)(=O)C(F)F)c3)s2)n1 [I-204, N-((R)-2-((1R,4R)-2-oxa-5-azabicyclo[2.2.1]heptan-5-yl)-1-(3-((difluoromethyl)sulfonamido)phenyl)ethyl)-5-(6-ethoxypyrazin-2-yl)thiazole-2-carboxamide] |
| 25 to 50 | CCOc1cncc(-c2cnc(C(=O)N[C@H](CN3C[C@H]4C[C@@H]3CO4)c3cccc(NS(=O)(=O)C(F)F)c3)s2)n1 [I-205, N-((S)-2-((1R,4R)-2-oxa-5-azabicyclo[2.2.1]heptan-5-yl)-1-(3-((difluoromethyl)sulfonamido)phenyl)ethyl)-5-(6-ethoxypyrazin-2-yl)thiazole-2-carboxamide, formic acid salt] |
| 5 to 25 | CCOc1cncc(-c2cnc(C(=O)N[C@@H](CN3CC[C@@](C)(O)C3)c3cccc(NS(=O)(=O)C(F)F)c3)s2)n1 [I-206, N-((R)-1-(3-((difluoromethyl)sulfonamido)phenyl)-2-((R)-3-hydroxy-3-methylpyrrolidin-1-yl)ethyl)-5-(6-ethoxypyrazin-2-yl)thiazole-2-carboxamide] |
| 25 to 50 | CCOc1cncc(-c2cnc(C(=O)N[C@H](CN3CC[C@@](C)(O)C3)c3cccc(NS(=O)(=O)C(F)F)c3)s2)n1 [I-207, N-((S)-1-(3-((difluoromethyl)sulfonamido)phenyl)-2-((R)-3-hydroxy-3-methylpyrrolidin-1-yl)ethyl)-5-(6-ethoxypyrazin-2-yl)thiazole-2-carboxamide] |
| 5 to 25 | CCOc1cncc(-c2cnc(C(=O)N[C@H](CN3CC[C@](C)(O)C3)c3cccc(NS(=O)(=O)C(F)F)c3)s2)n1 [I-208, N-((S)-1-(3-((difluoromethyl)sulfonamido)phenyl)-2-((S)-3-hydroxy-3-methylpyrrolidin-1-yl)ethyl)-5-(6-ethoxypyrazin-2-yl)thiazole-2-carboxamide, formic acid salt] |
| 5 to 25 | CCOc1cncc(-c2cnc(C(=O)N[C@@H](CN3CC[C@](C)(O)C3)c3cccc(NS(=O)(=O)C(F)F)c3)s2)n1 [I-209, N-((R)-1-(3-((difluoromethyl)sulfonamido)phenyl)-2-((S)-3-hydroxy-3-methylpyrrolidin-1-yl)ethyl)-5-(6-ethoxypyrazin-2-yl)thiazole-2-carboxamide, formic acid salt] |
| 5 to 25 | CCOc1cncc(-c2cnc(C(=O)N[C@@H](CN3C[C@H]4CC[C@@H]3C4)c3cccc(NS(=O)(=O)C(F)F)c3)s2)n1 [I-210, N-((R)-2-((1R,4S)-2-azabicyclo[2.2.1]heptan-2-yl)-1-(3-((difluoromethyl)sulfonamido)phenyl)ethyl)-5-(6-ethoxypyrazin-2-yl)thiazole-2-carboxamide] |
| 50 to 100 | CCOc1cncc(-c2cnc(C(=O)N[C@H](CN3C[C@H]4CC[C@@H]3C4)c3cccc(NS(=O)(=O)C(F)F)c3)s2)n1 [I-211, N-((S)-2-((1R,4S)-2-azabicyclo[2.2.1]heptan-2-yl)-1-(3-((difluoromethyl)sulfonamido)phenyl)ethyl)-5-(6-ethoxypyrazin-2-yl)thiazole-2-carboxamide] |
| 25 to 50 | CCOc1cncc(-c2cnc(C(=O)N[C@@H](CN(C)C)c3cccc(NS(=O)(=O)C(F)F)c3)s2)n1 [I-212, (R)-N-(1-(3-((difluoromethyl)sulfonamido)phenyl)-2-(dimethylamino)ethyl)-5-(6-ethoxypyrazin-2-yl)thiazole-2-carboxamide] |
| 5 to 25 | CCOc1cncc(-c2cnc(C(=O)N[C@H](CN(C)C)c3cccc(NS(=O)(=O)C(F)F)c3)s2)n1 [I-213, (S)-N-(1-(3-((difluoromethyl)sulfonamido)phenyl)-2-(dimethylamino)ethyl)-5-(6-ethoxypyrazin-2-yl)thiazole-2-carboxamide] |
| 5 to 25 | CCOc1cncc(-c2cnc(C(=O)N[C@@H](Cn3ccnn3)c3cccc(NS(=O)(=O)C(F)F)c3)s2)n1 [I-214, (R)-N-(1-(3-((difluoromethyl)sulfonamido)phenyl)-2-(1H-1,2,3-triazol-1-yl)ethyl)-5-(6-ethoxypyrazin-2-yl)thiazole-2-carboxamide] |
| 5 to 25 | CCOc1cncc(-c2cnc(C(=O)N[C@H](Cn3ccnn3)c3cccc(NS(=O)(=O)C(F)F)c3)s2)n1 [I-215, (S)-N-(1-(3-((difluoromethyl)sulfonamido)phenyl)-2-(1H-1,2,3-triazol-1-yl)ethyl)-5-(6-ethoxypyrazin-2-yl)thiazole-2-carboxamide] |
